Results reported in patent US20220362771A1, “USE OF DROPLET SINGLE CELL EPIGENOME PROFILING FOR PATIENT STRATIFICATION” (HiFiBio SAS, priority 2018, published 2022).
Where two headings read alike, the source gives them in different places.

Experiments:
[1] = test system: HBCx-95 triple-negative breast tumor PDX; test: breast tumor PDX model of acquired resistance to Capecitabine; format: in vivo, mice
Protocol: (a) n=6 mice with HBCx-95 derivatives were treated with Capecitabine for 6 weeks. Graphs represent relative tumor volumes (RTV, mm3) with time. Mice with recurrent tumors were treated for a second round of Capecitabine when PDX reached a volume of over 200 mm3 (mice #35, #40 & #33). […] Samples studied in manuscript are indicated with a dashed rectangle. (b) Histograms of the distribution of scChIP-seq raw and unique sequencing reads per cell in untreated HBCx-95 and Capecitabine-resistant HBCx-95-CapaR PDX. (c) Scatter plot displaying the log 2 enrichments in cumulative single-cell versus bulk H3K27me3 ChIP-seq data, calculated based on the counts per million mapped reads in 50 kb genomic bins. Pearson correlation score and p-value are computed genome-wide. (d) Distribution of the log 2 enrichments in 50 kb genomic bins for cumulative single-cell and bulk H3K27me3 ChIP-seq data. Amplitude between maximum and minimum log 2 enrichments are indicated on the top right for each ChIP-seq method (either bulk or single-cell).
It was profiled the H3K27me3 landscape at single-cell resolution for both sensitive and resistant xenografts, HBCx-95 and HBCx-95-CapaR (FIG. 17b), and it was also performed scRNA-seq to evaluate transcriptional heterogeneity within the same cell suspension (FIG. 18a). Cumulative single-cell chromatin profiles match bulk ChIP-seq profiles (FIG. 17c-d, r=0.89 with p<10-15).

MNase = MNase (Staphylococcus aureus, UniProt P00644); test: EGTA inactivation of MNase activity in droplets; format: biochemical; conditions: fraction of oligonucleotide remaining measured by TapeStation, normalized to droplets without MNase
Protocol: FIG. 3 depicts the concentration of EGTA necessary to fully inactivates MNase activity in droplets. The fraction of oligonucleotide remaining after incubation was measured by TapeStation and normalized to the digestion negative control (i.e droplets without MNase). 26 mM final concentration of EGTA fully inactivated MNase in droplets.
At the end of the encapsulation, droplets are incubated off-chip for single-cell chromatin fragmentation. Cells are lysed in droplets, making their nuclear DNA accessible for MNase enzyme. The kinetic of the digestion is particularly important to yield preferentially mono-nucleosomes, which are retained in the droplet. The ideal incubation time is defined as the time necessary to get 100% of nuclear DNA fragmented into mono-nucleosomes. The digestion conditions including lysis buffer composition, MNase concentration and incubation time are precisely calibrated for each sample by performing a time-course study. The calibration is carried out as follows: 45 pl droplets containing cells, lysis buffer and MNase are produced, collected in a collection tube and placed at 37° C. for different incubation time. At each time point, a fraction of droplets is broken and MNase immediately inactivated by addition of EGTA (see FIG. 3). DNA fragments are then purified and analyzed by electrophoresis. […]

[2] = test system: HBCx-22 luminal ER+ breast PDX; conditions: cited from earlier work

## CCCCCOC(=O)Nc1nc(=O)n([C@@H]2O[C@H](C)[C@@H](O)[C@H]2O)cc1F [Capecitabine]
[1]; mouse #40, recurrent tumor, second round of Capecitabine, PDX extracted at 1080 mm3 as HBCx-95-CapaR
  tumor response to Capecitabine (relative tumor volume): did not respond
[1]; xenograft derivatives from an individual patient (HBCx-95), before two cycles of treatment
  tumor response to Capecitabine: initially responsive

## O=C(O)CN(CCOCCOCCN(CC(=O)O)CC(=O)O)CC(=O)O [EGTA]
MNase
  final concentration of EGTA that fully inactivated MNase in droplets: 26 mM

## CC/C(=C(\c1ccccc1)c1ccc(OCCN(C)C)cc1)c1ccccc1 [Tamoxifen]
[2]; HBCx-22-TamR tumor derivative, previously characterized
  tumor response to Tamoxifen: acquired resistance
[2]; HBCx-22 PDX
  tumor response to Tamoxifen: responsive
